Test results reported in patent publication US20130296417A1, “Theaflavin Compositions, Production, and Method to Control Physiological Disorders in Mammals” (JANGSU DEHE BIO-TECH CO., LTD., priority 2010, published 2013).

Test system: Madin-Darby canine kidney (MDCK) cells
Assay: Cytotoxicity (CC50) in MDCK cells (Example II)

In the case of `O=C(O[C@@H]1Cc2c(O)cc(O)cc2O[C@@H]1c1cc(O)c(O)c(O)c1)c1cc(O)c(O)c(O)c1` [EGCG, (−)-epigallocatechin-3-gallate], the “CC50” value is reported as >100 µg/mL.
